According to US4094964A, “Clonidine assay” (Hoffmann-La Roche Inc., priority 1977, dated 1978):

Tested on: antibody in the antiserum of rabbit immunized by the clonidine bovine serum albumin immunogen
Test: Radioimmunoassay specificity: competition with clonidine-14C for binding to the antiserum
Conditions: antiserum 1:50, about 18 hours at 4° C.; for recognition by the antibody in the presence of labelled clonidine: 100 ng to 500 pg of competitor; for recognition by the antibody in the presence of labelled clonidine / concentration required relative to that of clonidine (cross-reactivity): pH 7.4
Method: The antiserum of Example 3 as used for the radioimmunoassay was diluted with normal rabbit serum which was diluted with phosphate-buffered saline, pH 7.4, at 1:10-dilution. To determine the antibody titre of antiserum, 0.1 ml of various dilutions of the antiserum was incubated in an assay tube (10 × 75 mm) with 2 ng of clonidine ^14 C approximately 3,000 cpm at 4° C. for about 18 hours. The volume was adjusted to 0.5 ml with phosphate-buffered saline, pH 7.4, which is the optimal pH for the assay. The antibody bound clonidine was separated from free clonidine by the addition of saturated ammonium sulfate which was adjusted to pH 7.4 with ammonium hydroxide as described by Farr, J. Infect. Dis 103, 239 (1958). After 2 washings with 50% saturated ammonium sulfate, the precipitate was dissolved in 0.5 ml of water. The content of the tube was transferred to counting vial and the tube was then washed 4 times with 3 ml of Riafluor. The 12 ml washings were all collected in the vial. The radioactivity was then counted with a Beckman liquid scintillation counter. The dilution of the antiserum chosen for further studies was 1:50.
Appropriate volume of phosphate-buffered saline, pH 7.4 was added to all tubes containing 0.1 ml of the antiserum to make a final incubation volume of 0.5 ml. To the tubes were added 100 ul of clonidine-^14 C and various quantities ranging from 100 ng to 500 pg of clonidine, 2-(2,6-dichloro-4-hydroxyanilino)-2-imidazoline (4-hydroxyclonidine), 2-(2,6-dichloro-4-sulfonamidoanilino)-2-imidazoline (4-sulfonamidoclonidine),2-(2-chloro-3-methylanilino)-2-imidazoline, 2-(2-chloro-4-methylanilino)-2-imidazoline, 2-(2-chloro-6-methylanilino)-2-imidazoline, 2-anilino-2-imidazoline, 2-(2,6-dichloro-anilino)-2-methyl-2-imidazoline (2-methylclonidine), 2-(2,6-dichloroanilino)-1-methyl-2-imidazoline (1-methylclonidine), 1-acetamido-2-(2,6-dichloroanilino)-2-imidazoline (1-acetamidoclonidine), 2-(2,6-dichloroanilino)-2-pyrroline, 2-(2,6-dichloroanilino)-2-oxazoline, 2-(2,6-dichloroanilino)-2-benzimidazole, 2-(2,6-dichloroanilino)-1,3-dimethylquanidine, 2-(2,6-dichloroanilino)-1-methylguanidine, 2-(2,6-dichloroanilino)quanidine, aniline or 2-(2,6-dichlorobenzyl)-2-imidazoline. The tubes were then incubated for about 18 hours at 4° C. followed by precipitation with ammonium sulfate.
The specificity of the antibody in the antiserum of rabbit immunized by the clonidine bovine serum albumin immunogen was determined by incubating the antiserum with 2-(2,6-dichloro-4-hydroxyanilino)-2-imidazoline (4-hydroxyclonidine), 2-(2,6-dichloro-4-sulfonamidoanilino)-2-imidazoline (4-sulfonamidoclonidine), 2-(2-chloro-3-methylanilino)-2-imidazoline, 2-(2-chloro-4-methylanilino)-2-imidazoline, 2-(2-chloro-6-methylanilino)-2-imidazoline, 2-anilino-2-imidazoline, 2-(2,6-dichloroanilino)-2-methyl-2-imidazoline (2-methylclonidine), 2-(2,6-dichloroanilino)-1-methyl-2-imidazoline (1-methylclonidine), 1-acetamido-2-(2,6-dichloroanilino)-2-imidazoline (1-acetamidoclonidine), 2-(2,6-dichloroanilino)-2-pyrroline, 2-(2,6-dichloroanilino)-2-oxazoline, 2-(2,6-dichloroanilino)-2-benzimidazole, 2-(2,6-dichloroanilino)-1,3-dimethylguanidine, 2-(2,6-dichloroanilino)-1-methylguanidine, 2-(2,6-dichloroanilino)guanidine, aniline or 2-(2,6-dichlorobenzyl)-2-imidazoline in the presence of labelled clonidine.

Compound | recognition by the antibody in the presence of labelled clonidine | further results
CC(=O)NN1CCN=C1Nc1c(Cl)cccc1Cl [1-acetamido-2-(2,6-dichloroanilino)-2-imidazoline] | recognized | 
Clc1cccc(Cl)c1NC1=NCCO1 [2-(2,6-dichloro-anilino)-2-oxazoline, 2-(2,6-dichloroanilino)-2-oxazoline] | failed to recognize | 
Cc1cccc(Cl)c1NC1=NCCN1 [2-(2-chloro-6-methylanilino)-2-imidazoline] | recognized | 
Cc1cccc(NC2=NCCN2)c1Cl [2-(2-chloro-3-methylanilino)-2-imidazoline] | recognized | 
2-(2,6-dichloroanilino)-2-methyl-2-imidazoline | failed to recognize | 
2-(2,6-dichloroanilino)-1,3-dimethylguanidine | failed to recognize | 
Clc1cccc(Cl)c1CC1=NCCN1 [2-(2,6-dichlorobenzyl)-2-imidazoline] | failed to recognize | 
c1ccc(NC2=NCCN2)cc1 [2-anilino-2-imidazoline] | failed to recognize | 
2-(2,6-dichloroanilino)-1-methylguanidine |  | concentration required relative to that of clonidine (cross-reactivity): about 40 times that of clonidine
CN1CCN=C1Nc1c(Cl)cccc1Cl [2-(2,6-dichloroanilino)-1-methyl-2-imidazoline] | failed to recognize | 
Clc1cccc(Cl)c1N=C1NCCN1 [Clonidine] |  | IC50 (read-out: concentration producing a 50% inhibition of binding of clonidine-14C to the antibody, pH 7.4, ammonium sulfate precipitation): 25 nM
Nc1ccccc1 [aniline] | failed to recognize | 
Clc1cccc(Cl)c1NC1=CCCN1 [2-(2,6-dichloroanilino)-2-pyrroline] |  | concentration required relative to that of clonidine (cross-reactivity): about 40 times that of clonidine
Oc1cc(Cl)c(NC2=NCCN2)c(Cl)c1 [2-(2,6-dichloro-4-hydroxyanilino)-2-imidazoline] | recognized | 
2-(2,6-dichloroanilino)guanidine [2-(2,6-dichloro-anilino)guanidine] | failed to recognize | 
NS(=O)(=O)c1cc(Cl)c(NC2=NCCN2)c(Cl)c1 [2-(2,6-dichloro-4-sulfonamidoanilino)-2-imidazoline] | recognized | 
Cc1ccc(NC2=NCCN2)c(Cl)c1 [2-(2-chloro-4-methylanilino)-2-imidazoline] | recognized | 
